# Reference: ChEMBL document CHEMBL1201862, “PubChem BioAssay data set” (2004)
# Activity calls are given as the source filed them.
# Assays:
# [1] = biological target: Estrogen receptor beta (Homo sapiens, UniProt Q92731);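 note: recombinant ER-beta bound to coactivator SRC1 peptide in presence of estradiol agonist; inhibitors block coactivator peptide binding and lower the FRET signal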
# [2] = HepG2 cell cytotoxicity, dose response, cytotoxicity control, cherry-picked samples (AID 1159577); assay type: functional, cell-based
# [3] = P. falciparum Dd2 growth inhibitors, dose response, SYBR Green, cherry-picked samples (AID 1159567); assay type: functional, cell-based
# [4] = growth suppression of PTEN-null colon cells, dose response, cell-based, HCT116 PTEN knockout (AID 1047); assay type: functional;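 note: HCT116 colon tumor cells with PTEN knocked out; cells exposed to compound for 60 hours before readout; potency for loss of cell viability measured by luminescence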
# [5] = growth suppression of beta-catenin-knockout colon cells, dose response, cell-based, HCT116, human colon tumor (AID 1045); assay type: functional;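 note: HCT116 colon tumor cells with beta catenin knocked out; cells exposed to compound for 60 hours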
# [6] = cytotoxicity toward NIH3T3 fibroblasts, dose response, counter-screen, cell-based, ATP luminescence, mouse fibroblasts (AID 2010); assay type: functional;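 note: cells exposed to compound for about 90 hours before reading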
# [7] = Luminescence Cell-Based Dose Retest to Confirm Inhibitors of Cancer Stem Cells. [Related pubchem assays (depositor defined):AID2717, AID2721]; assay type: functional; details: Homo sapiens
# [8] = THP-1 cell cytotoxicity, dose response, cytotoxicity control for non-replicating M. tuberculosis project (AID 489025); assay type: functional
# [9] = biological target: Melanocortin receptor 4 (Homo sapiens, UniProt P32245); assay type: functional, cell-based;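 note: Cell-based assay with luminescence read-out, confirmatory dose-response testing for agonist activity of biased ligands at MC4R; human U2OS cells with tagged receptor and beta-arrestin; potency of agonists that increase receptor coupling to beta-arrestin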
# Melanocortin receptor 4, sequence (P32245 whole entry): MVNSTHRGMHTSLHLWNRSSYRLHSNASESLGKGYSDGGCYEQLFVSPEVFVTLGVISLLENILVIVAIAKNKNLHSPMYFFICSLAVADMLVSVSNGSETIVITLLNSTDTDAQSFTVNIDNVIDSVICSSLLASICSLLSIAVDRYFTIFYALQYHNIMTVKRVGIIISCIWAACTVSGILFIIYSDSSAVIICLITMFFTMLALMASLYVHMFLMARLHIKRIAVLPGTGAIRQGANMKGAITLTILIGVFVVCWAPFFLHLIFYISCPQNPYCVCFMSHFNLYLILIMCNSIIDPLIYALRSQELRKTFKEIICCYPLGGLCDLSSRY
# [10] = inhibitors of intracellular T. cruzi replication, confirmation, NIH3T3 host cells, beta-gal luminescence (AID 2044); assay type: functional, cell-based;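 note: intracellular parasites grown in NIH/3T3 mouse fibroblasts as host cells; luminescent beta-galactosidase reporter signal from transgenic T. cruzi replicating inside host cells; inhibitors lower the luminescence signal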
# [11] = cells; assay type: functional
# [12] = biological target: Voltage-dependent T-type calcium channel subunit alpha-1H (Homo sapiens, UniProt O95180); assay type: functional;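 note: channel activity triggered by adding a high calcium stimulation buffer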
# Voltage-dependent T-type calcium channel subunit alpha-1H, sequence (O95180 whole entry): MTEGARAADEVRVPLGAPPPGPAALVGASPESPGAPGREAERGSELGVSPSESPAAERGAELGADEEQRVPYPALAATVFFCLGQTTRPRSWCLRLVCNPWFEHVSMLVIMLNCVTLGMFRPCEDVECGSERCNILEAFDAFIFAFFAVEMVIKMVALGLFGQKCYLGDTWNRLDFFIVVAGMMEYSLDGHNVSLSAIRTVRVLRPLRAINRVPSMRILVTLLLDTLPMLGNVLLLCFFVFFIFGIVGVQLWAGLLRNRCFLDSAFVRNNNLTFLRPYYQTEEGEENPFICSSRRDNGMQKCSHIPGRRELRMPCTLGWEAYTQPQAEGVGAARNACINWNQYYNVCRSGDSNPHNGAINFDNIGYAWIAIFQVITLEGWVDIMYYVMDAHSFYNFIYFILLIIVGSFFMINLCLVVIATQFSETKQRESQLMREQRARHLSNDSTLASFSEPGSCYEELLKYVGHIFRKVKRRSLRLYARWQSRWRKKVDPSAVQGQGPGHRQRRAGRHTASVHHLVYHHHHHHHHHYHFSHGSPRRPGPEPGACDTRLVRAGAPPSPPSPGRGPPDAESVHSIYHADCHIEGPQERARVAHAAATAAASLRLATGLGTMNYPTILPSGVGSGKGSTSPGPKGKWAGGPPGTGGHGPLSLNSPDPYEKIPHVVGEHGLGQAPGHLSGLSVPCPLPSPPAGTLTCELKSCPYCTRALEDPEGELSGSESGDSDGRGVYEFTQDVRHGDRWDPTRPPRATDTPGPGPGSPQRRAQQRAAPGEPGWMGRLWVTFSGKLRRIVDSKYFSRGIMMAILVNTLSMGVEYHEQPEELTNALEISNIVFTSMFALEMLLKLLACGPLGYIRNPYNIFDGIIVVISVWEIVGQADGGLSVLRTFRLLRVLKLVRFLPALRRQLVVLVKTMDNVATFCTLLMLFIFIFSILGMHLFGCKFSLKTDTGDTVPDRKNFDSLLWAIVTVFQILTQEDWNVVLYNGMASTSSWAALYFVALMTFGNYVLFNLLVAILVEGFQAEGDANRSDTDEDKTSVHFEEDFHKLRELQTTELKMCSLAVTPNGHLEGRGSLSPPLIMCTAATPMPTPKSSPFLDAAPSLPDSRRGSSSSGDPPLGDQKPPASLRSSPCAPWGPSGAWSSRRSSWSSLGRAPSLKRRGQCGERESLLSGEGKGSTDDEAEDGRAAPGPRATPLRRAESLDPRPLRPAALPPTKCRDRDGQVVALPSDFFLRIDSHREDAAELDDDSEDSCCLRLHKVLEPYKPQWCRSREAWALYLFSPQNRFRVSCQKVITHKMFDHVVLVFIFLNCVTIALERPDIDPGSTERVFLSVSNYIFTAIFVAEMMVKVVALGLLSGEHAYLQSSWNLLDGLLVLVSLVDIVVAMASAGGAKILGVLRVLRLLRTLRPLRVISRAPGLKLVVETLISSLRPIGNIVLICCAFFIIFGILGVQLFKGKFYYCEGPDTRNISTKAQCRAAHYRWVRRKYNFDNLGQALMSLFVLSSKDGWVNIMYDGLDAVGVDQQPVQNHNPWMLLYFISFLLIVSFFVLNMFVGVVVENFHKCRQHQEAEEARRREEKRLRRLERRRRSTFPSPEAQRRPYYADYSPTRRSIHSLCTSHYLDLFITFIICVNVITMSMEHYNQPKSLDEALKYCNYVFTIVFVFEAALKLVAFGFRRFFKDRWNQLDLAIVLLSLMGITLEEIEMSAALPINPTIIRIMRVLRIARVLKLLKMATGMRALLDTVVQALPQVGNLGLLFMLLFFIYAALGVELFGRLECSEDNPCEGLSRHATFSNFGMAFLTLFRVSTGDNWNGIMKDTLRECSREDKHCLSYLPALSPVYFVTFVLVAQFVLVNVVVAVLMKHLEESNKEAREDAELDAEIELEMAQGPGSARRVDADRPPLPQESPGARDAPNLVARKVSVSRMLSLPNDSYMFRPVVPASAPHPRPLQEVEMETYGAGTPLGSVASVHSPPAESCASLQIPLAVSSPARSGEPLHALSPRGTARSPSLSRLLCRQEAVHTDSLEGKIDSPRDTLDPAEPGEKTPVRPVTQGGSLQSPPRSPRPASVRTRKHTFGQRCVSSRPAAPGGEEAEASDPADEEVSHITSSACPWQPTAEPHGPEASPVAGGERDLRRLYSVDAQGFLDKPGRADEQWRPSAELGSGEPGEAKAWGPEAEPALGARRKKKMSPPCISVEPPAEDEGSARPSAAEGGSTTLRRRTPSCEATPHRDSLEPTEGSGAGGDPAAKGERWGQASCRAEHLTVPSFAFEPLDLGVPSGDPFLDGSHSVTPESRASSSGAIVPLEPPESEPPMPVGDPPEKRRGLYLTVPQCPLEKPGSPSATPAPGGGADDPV
# [13] = Vero E6 cell cytotoxicity, dose response, cytotoxicity control for non-replicating M. tuberculosis project, secondary assay (AID 492998); assay type: functional, VeroE6; details: Vero C1008
# [14] = microbe, parasite or virus in culture; assay type: functional; details: Mycobacterium tuberculosis
# [15] = HepG2 cell cytotoxicity, dose response, cytotoxicity control for non-replicating M. tuberculosis project (AID 489018); assay type: functional; details: Mycobacterium tuberculosis
# [16] = inhibitors of SNCA 5'UTR-driven reporter translation, confirmation, H4 neuroglioma cells, luminescence (AID 1988); assay type: functional, cell-based
# [17] = luciferase reporter signal reduction – luminescence, H4-C neuroglioblastoma cells, dose response (AID 2458); assay type: functional, cell-based;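 note: H4 neuroglioblastoma cells stably carrying a luciferase reporter gene fusion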
# [18] = Luminescence Cell-Based Dose Response HTS to Identify Inhibitors of 5'UTR Stem-Loop Driven Prion Protein mRNA Translation in H4 Neuroglioblastoma Cells. [Related pubchem assays: 1827 (Project Summary), 1813 (Primary HTS)]; assay type: functional
# [19] = inhibitors of firefly luciferase expression or activity, dose response, H4 neuroglioma cells, luminescence (AID 1990); assay type: functional, cell-based
# [20] = cells; assay type: functional, cell-based
# [21] = inhibitors of SNCA 5'UTR-driven translation, confirmation, luminescence, H4 neuroglioblastoma cells, dose confirmation (AID 2454); assay type: functional, cell-based;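 note: H4 neuroglioblastoma cells carrying an alpha-synuclein 5'UTR luciferase reporter; potency for inhibition of the luciferase signal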
# [22] = biological target: FAD-linked sulfhydryl oxidase ALR (Homo sapiens, UniProt P55789); test: inhibitors of human ALR sulfhydryl oxidase, dose response, biochemical, H2O2 detection, luminescence, cherry-pick (AID 493248)
# FAD-linked sulfhydryl oxidase ALR, sequence (P55789 whole entry): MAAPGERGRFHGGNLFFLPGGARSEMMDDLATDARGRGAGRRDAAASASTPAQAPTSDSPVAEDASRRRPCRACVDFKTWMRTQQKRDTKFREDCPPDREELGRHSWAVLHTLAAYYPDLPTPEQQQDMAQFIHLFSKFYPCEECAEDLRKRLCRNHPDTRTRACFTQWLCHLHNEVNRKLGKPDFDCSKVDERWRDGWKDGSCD
# [23] = biological target: Cyclin-dependent kinase 5/CDK5 activator 1 (Homo sapiens, UniProt Q00535); test: CDK5/p35 kinase inhibitors, dose response, biochemical, cherry-picked samples, set 2 (AID 504545)
# Cyclin-dependent kinase 5/CDK5 activator 1, sequence (Q00535 whole entry): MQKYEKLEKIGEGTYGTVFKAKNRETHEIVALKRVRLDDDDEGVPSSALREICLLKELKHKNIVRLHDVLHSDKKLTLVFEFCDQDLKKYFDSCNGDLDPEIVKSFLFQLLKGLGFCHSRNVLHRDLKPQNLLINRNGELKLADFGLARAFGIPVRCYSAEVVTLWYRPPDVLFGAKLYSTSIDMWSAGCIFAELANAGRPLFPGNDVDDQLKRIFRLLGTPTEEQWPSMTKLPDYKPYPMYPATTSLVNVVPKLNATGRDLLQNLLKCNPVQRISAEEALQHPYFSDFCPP
# Cyclin-dependent kinase 5/CDK5 activator 1, sequence (Q15078 whole entry, further chain): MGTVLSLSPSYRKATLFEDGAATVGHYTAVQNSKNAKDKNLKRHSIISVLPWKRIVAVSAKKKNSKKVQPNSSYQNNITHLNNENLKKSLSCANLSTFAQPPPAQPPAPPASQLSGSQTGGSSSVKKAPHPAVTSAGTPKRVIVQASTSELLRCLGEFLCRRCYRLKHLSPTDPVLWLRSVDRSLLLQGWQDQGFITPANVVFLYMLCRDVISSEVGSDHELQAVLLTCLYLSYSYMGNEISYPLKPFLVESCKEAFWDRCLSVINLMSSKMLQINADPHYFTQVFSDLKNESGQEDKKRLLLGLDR
# [24] = biological target: T1, Polyadenylate-binding protein 1 (Homo sapiens, UniProt P11940); test: PABP1 MLLE–PAM2 binding inhibitor potency, dose response, biochemical, fluorescence polarization, FITC-PAM2 peptide (AID 602259); assay type: functional; details: read-out: IC50_Mean
# T1 sequence (P11940 whole entry): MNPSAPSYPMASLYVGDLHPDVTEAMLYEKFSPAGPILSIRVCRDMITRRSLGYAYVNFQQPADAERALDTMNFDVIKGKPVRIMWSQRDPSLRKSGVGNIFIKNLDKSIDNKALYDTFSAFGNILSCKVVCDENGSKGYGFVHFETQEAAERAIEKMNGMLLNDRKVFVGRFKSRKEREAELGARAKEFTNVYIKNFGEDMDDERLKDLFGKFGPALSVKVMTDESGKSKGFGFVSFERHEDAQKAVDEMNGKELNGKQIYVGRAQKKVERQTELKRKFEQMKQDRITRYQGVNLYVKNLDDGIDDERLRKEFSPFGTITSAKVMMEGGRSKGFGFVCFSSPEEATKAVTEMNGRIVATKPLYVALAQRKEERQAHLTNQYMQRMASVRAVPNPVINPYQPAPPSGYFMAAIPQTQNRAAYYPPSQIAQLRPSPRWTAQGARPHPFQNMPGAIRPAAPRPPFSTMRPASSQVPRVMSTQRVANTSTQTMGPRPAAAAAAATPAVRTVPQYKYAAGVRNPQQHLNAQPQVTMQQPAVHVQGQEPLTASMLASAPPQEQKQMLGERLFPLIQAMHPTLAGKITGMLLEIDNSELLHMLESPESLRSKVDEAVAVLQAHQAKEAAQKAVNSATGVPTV
# [25] = biological target: DNA dC->dU-editing enzyme APOBEC-3G (Homo sapiens, UniProt Q9HC16); test: Dose Response confirmation of small molecule APOBEC3G DNA Deaminase Inhibitors via a fluorescence-based single-stranded DNA deaminase assay. [Related pubchem assays (depositor defined):AID493012, AID493028]; assay type: functional
# DNA dC->dU-editing enzyme APOBEC-3G, sequence (Q9HC16 whole entry): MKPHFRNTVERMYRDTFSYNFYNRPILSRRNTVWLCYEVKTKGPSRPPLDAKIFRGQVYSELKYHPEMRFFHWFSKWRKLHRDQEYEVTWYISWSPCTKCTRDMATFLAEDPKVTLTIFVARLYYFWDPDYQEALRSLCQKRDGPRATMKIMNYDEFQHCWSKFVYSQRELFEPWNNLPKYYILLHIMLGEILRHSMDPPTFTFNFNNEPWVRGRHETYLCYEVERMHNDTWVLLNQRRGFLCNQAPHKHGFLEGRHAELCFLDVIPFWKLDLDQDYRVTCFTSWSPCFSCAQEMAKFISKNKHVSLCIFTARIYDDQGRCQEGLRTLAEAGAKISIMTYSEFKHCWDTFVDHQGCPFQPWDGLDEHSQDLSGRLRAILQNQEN
# [26] = biological target: T1, Polyadenylate-binding protein 1; test: PABP1 MLLE–PAM2 interaction inhibitors, dose response, miRNA deadenylation inhibitor project, biochemical, fluorescence polarization, Cy5-PAM2 peptide, secondary (AID 602260); assay type: functional; details: read-out: IC50_Mean
# [27] = system: BJ; test: cells; assay type: functional, cell-based; details: Homo sapiens
# [28] = system: BJ; test: cytotoxicity toward BJ-TERT fibroblasts, dose response, cell-based, RAS-independent, luminescence (AID 1933); assay type: functional; details: Homo sapiens
# [29] = system: BJ; test: cytotoxicity toward Ras-transformed BJeLR fibroblasts, dose response, cell-based, alamar blue fluorescence, cherrypicked samples (AID 2631); assay type: functional; details: Homo sapiens;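 note: confirmatory dose-response assay in RAS-dependent BJ fibroblasts engineered with TERT, LT and ST, with cytotoxicity read by fluorescence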
# [30] = cytotoxicity toward DRD oncogenic fibroblasts, dose response, cell-based, non-viral oncogenic, luminescence (AID 1934); assay type: functional; details: Homo sapiens
# [31] = system: BJ; test: cytotoxicity toward BJ-TERT-LT-ST fibroblasts, dose response, cell-based, RAS-independent, luminescence (AID 1935); assay type: functional; details: Homo sapiens;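 note: BJ fibroblasts immortalized with TERT plus LT and ST oncogenes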
# [32] = cytotoxicity in HEK-293T cells, dose response, cytotoxicity control for TCR NF-kB inhibitor project, luminescence, T-cell screen hits (AID 489026); assay type: functional, cell-based;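 note: cells exposed to compound about 14 hours before the viability readout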
# Estrogen receptor beta, sequence (Q92731 whole entry): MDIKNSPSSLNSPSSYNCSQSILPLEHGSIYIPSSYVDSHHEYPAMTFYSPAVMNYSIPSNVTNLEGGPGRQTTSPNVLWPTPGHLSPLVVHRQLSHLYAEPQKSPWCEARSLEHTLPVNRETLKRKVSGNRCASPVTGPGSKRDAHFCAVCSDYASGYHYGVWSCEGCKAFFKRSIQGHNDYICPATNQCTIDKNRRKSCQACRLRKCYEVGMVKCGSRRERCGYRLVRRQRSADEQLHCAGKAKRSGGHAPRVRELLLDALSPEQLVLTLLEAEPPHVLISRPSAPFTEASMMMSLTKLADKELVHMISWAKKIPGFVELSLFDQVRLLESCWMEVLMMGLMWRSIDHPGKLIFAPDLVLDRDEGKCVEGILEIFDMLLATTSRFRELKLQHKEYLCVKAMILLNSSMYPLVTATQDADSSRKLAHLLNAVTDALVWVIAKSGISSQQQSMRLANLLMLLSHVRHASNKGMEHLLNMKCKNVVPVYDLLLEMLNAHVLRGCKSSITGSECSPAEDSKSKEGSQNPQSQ
smiles,measurement,setting,value
COc1ccccc1NC(=O)NC(N)=O,IC50,[1],> 50 µM (not active)
Cc1cccc(-c2ccc([C@@H]3[C@H](CO)N4CCCCN(S(=O)(=O)c5cccc(C)c5)C[C@@H]34)cc2)c1,AC50,[2],8.89 µM (active)
same,AC50,[3],864 nM (active)
Cc1ccc2cc(C#N)c(SCc3nnc(-c4ccccc4[N+](=O)[O-])o3)nc2c1,EC50,[4],3.33 µM (active)
same,EC50,[5],4.3 µM (active)
OC(CNCCc1ccc(C(F)(F)F)cc1)COc1cccc2ccccc12 (stereo not drawn),EC50,[6],> 60 µM (inconclusive)
same,EC50,[4],12.7 µM (active)
same,AC50,[7],3.47 µM (active)
same,CC50,[8],21.5 µM (active)
same,EC50,[9],> 89.2 µM (inactive)
same,EC50,[5],10.7 µM (active)
same,EC50,[10],631 nM (active)
same,IC50,[11],21.7 µM (active)
COc1ccc(OC)c(CCNC(=O)CS(=O)(=O)Cc2nc(-c3ccc(C)cc3)oc2C)c1,EC50,[12],3.8 µM (active)
CC(C)(C)OC(=O)NNc1c2ccccc2nc2ccccc12,CC50,[13],> 20 µM (active)
same,CC50,[8],> 40 µM (active)
same,CC50,[14],> 40 µM (active)
same,IC50,[11],22.2 µM (active)
same,CC50,[15],15.1 µM (active)
C/C=C(\C)C(=O)OC1C(C)=C2C(C1OC(=O)CCCCC)C(C)(OC(C)=O)CC(OC(=O)CCC)C1(O)C2OC(=O)C1(C)O (stereo not drawn),EC50,[16],< 100 nM (active)
same,EC50,[17],51 nM (active)
same,EC50,[18],< 100 nM (active)
same,EC50,[19],< 100 nM (active)
same,EC50,[20],228 nM (active)
same,EC50,[21],47 nM (active)
Cc1cc(-c2nsc(=O)o2)c(S(C)(=O)=O)s1,AC50,[22],3.86 µM (active)
same,AC50,[23],29.3 µM (active)
CCCOC(=O)c1c(NC(=O)C2CCCO2)sc(C(=O)OC)c1C (stereo not drawn),EC50,[4],28.7 µM (active)
same,IC50,[24],> 66 µM (inactive)
same,EC50,[5],28.2 µM (active)
same,IC50,[25],69.5 µM (active)
same,IC50,[26],> 66 µM (inactive)
CCOc1ccccc1C(=O)N1CCN(c2cccc(Cl)c2)CC1,EC50,[16],< 100 nM (active)
same,EC50,[27],2.85 µM (inconclusive)
same,EC50,[28],2.66 µM (inconclusive)
same,EC50,[17],229 nM (active)
same,EC50,[29],< 104 nM (active)
same,EC50,[30],2.65 µM (active)
same,EC50,[19],< 100 nM (active)
same,EC50,[31],1.44 µM (active)
same,EC50,[20],331 nM (active)
same,IC50,[32],> 80 µM (inactive)
same,EC50,[21],310 nM (active)
